Test results: ChEMBL document CHEMBL2434827, “Selective inhibition of heme oxygenase-2 activity by analogs of 1-(4-chlorobenzyl)-2-(pyrrolidin-1-ylmethyl)-1H-benzimidazole (clemizole): Exploration of the effects of substituents at the N-1 position” (Bioorg Med Chem, 2013)

Columns and labels:
Heme oxygenase 2 = biological target: T1, Heme oxygenase 2 (Rattus norvegicus, UniProt P23711); experiment: Inhibition of HO-2 in Sprague-Dawley rat brain microsomal fractions assessed as carbon monoxide formation from methemalbumin after 10 mins by gas chromatography analysis; assay type: microsomes
T1 sequence (P23711 whole entry): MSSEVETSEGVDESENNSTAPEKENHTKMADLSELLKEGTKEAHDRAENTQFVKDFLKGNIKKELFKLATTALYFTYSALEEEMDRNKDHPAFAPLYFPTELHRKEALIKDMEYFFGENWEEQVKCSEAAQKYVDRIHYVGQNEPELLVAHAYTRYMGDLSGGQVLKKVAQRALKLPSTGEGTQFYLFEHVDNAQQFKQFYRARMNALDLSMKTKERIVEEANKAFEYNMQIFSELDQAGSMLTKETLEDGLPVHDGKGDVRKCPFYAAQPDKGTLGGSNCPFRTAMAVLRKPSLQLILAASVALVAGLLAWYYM

Rattus norvegicus = organism: Rattus norvegicus; experiment: Selectivity index, ratio of IC50 for HO-1 in Sprague-Dawley rat spleen microsomal fractions to IC50 for HO-2 in Sprague-Dawley rat brain microsomal fractions; assay type: microsomes; conditions: Microsome
Heme oxygenase 1 = biological target: T2, Heme oxygenase 1 (Rattus norvegicus, UniProt P06762); experiment: Inhibition of HO-1 in Sprague-Dawley rat spleen microsomal fractions assessed as carbon monoxide formation from methemalbumin after 10 mins by gas chromatography analysis; assay type: microsomes, Microsome
T2 sequence (P06762 whole entry): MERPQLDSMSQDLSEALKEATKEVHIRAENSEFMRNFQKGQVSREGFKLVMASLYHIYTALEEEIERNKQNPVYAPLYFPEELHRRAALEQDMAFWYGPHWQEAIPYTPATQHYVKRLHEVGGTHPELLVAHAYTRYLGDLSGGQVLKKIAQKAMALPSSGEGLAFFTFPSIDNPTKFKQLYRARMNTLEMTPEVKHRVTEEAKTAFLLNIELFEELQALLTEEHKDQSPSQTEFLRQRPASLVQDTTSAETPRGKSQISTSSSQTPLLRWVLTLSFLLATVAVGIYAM

Row | IC50 (Heme oxygenase 2) | Ratio IC50 (Rattus norvegicus) | IC50 (Heme oxygenase 1) | Structure (SMILES)
1 | 3.4 µM | > 29 | > 100 µM | Clc1ccc(Cn2c(CN3CCCC3)nc3ccccc32)cc1
2 | 1.65 µM | > 60 | > 100 µM | Clc1cccc(Cn2c(CN3CCCC3)nc3ccccc32)c1
3 | 9.2 µM | > 10 | > 100 µM | Clc1cccc(Cl)c1Cn1c(CN2CCCC2)nc2ccccc21
4 | 5 µM | > 20 | > 100 µM | c1ccc2cc(Cn3c(CN4CCCC4)nc4ccccc43)ccc2c1
5 | 5 µM | > 20 | > 100 µM | Cc1ccc(Cn2c(CN3CCCC3)nc3ccccc32)cc1
6 | 17 µM | > 5 | > 100 µM | Clc1ccc(Cn2c(CN3CCCC3)nc3ccccc32)cc1Cl
7 | 4.1 µM | > 24 | > 100 µM | c1ccc(C(c2ccccc2)n2c(CN3CCCC3)nc3ccccc32)cc1
8 | 4.8 µM | > 20 | > 100 µM | Clc1ccccc1Cn1c(CN2CCCC2)nc2ccccc21
9 | 6.1 µM | 10 | 62 µM | Clc1ccc(Cn2c(CN3CCCC3)nc3ccccc32)c(Cl)c1
10 | 55 µM | > 1.8 | > 100 µM | CC(C)c1ccc(Cn2c(CN3CCCC3)nc3ccccc32)cc1
11 | 4 µM | 24 | 96 µM | Clc1ccc(Cl)c(Cn2c(CN3CCCC3)nc3ccccc32)c1
12 | 7.6 µM | > 13 | > 100 µM | Ic1ccc(Cn2c(CN3CCCC3)nc3ccccc32)cc1
13 | 63 µM | > 1.5 | > 100 µM | c1ccc(COc2ccc(Cn3c(CN4CCCC4)nc4ccccc43)cc2)cc1
14 | 1.8 µM | 42 | 76 µM | Cc1ccccc1Cn1c(CN2CCCC2)nc2ccccc21
15 | 2.1 µM | > 47 | > 100 µM | Clc1cc(Cl)cc(Cn2c(CN3CCCC3)nc3ccccc32)c1
16 | 15.8 µM | > 6 | > 100 µM | N#Cc1cccc(Cn2c(CN3CCCC3)nc3ccccc32)c1

Row | IC50 (Heme oxygenase 2) | Ratio IC50 (Rattus norvegicus) | IC50 (Heme oxygenase 1) | Structure (SMILES)
17 | 2.6 µM | > 38 | > 100 µM | Brc1ccc(Cn2c(CN3CCCC3)nc3ccccc32)cc1
18 | 5 µM | > 20 | > 100 µM | Cc1cccc(Cn2c(CN3CCCC3)nc3ccccc32)c1
19 | > 100 µM | – | > 100 µM | c1ccc(OCCn2c(CN3CCCC3)nc3ccccc32)cc1
20 | 11 µM | > 9 | > 100 µM | N#Cc1ccc(Cn2c(CN3CCCC3)nc3ccccc32)cc1
21 | 14.7 µM | > 6 | > 100 µM | Clc1cccc(Cn2c(CN3CCCC3)nc3ccccc32)c1Cl
22 | 15.6 µM | > 6.4 | > 100 µM | FC(F)(F)c1ccc(Cn2c(CN3CCCC3)nc3ccccc32)cc1
23 | 1.5 µM | > 66 | > 100 µM | Brc1cccc(Cn2c(CN3CCCC3)nc3ccccc32)c1
24 | > 100 µM | – | > 100 µM | c1ccc2[nH]c(CN3CCCC3)nc2c1
25 | 4 µM | > 25 | > 100 µM | N#Cc1ccccc1Cn1c(CN2CCCC2)nc2ccccc21
26 | 15 µM | > 6 | > 100 µM | CSc1ccc(Cn2c(CN3CCCC3)nc3ccccc32)cc1
27 | 3.1 µM | > 32 | > 100 µM | c1ccc(Cn2c(CN3CCCC3)nc3ccccc32)cc1
28 | 27 µM | > 3 | > 100 µM | CCCn1c(CN2CCCC2)nc2ccccc21
29 | 2 µM | > 50 | > 100 µM | Fc1ccc(Cn2c(CN3CCCC3)nc3ccccc32)cc1
30 | 2.7 µM | > 37 | > 100 µM | c1ccc(CCn2c(CN3CCCC3)nc3ccccc32)cc1
31 | 3.5 µM | > 28 | > 100 µM | O=[N+]([O-])c1ccccc1Cn1c(CN2CCCC2)nc2ccccc21
32 | 1.6 µM | 26 | 42 µM | Brc1ccccc1Cn1c(CN2CCCC2)nc2ccccc21

Row | Structure (SMILES) | IC50 (Heme oxygenase 2) | Ratio IC50 (Rattus norvegicus) | IC50 (Heme oxygenase 1)
33 | c1ccc2c(c1)nc(CN1CCCC1)n2CC1CCCCC1 | 6 µM | > 16 | > 100 µM
34 | COc1ccc(Cn2c(CN3CCCC3)nc3ccccc32)cc1 | 18 µM | > 5 | > 100 µM
35 | O=[N+]([O-])c1ccc(Cn2c(CN3CCCC3)nc3ccccc32)cc1 | 27 µM | > 3 | > 100 µM
36 | O=[N+]([O-])c1cccc(Cn2c(CN3CCCC3)nc3ccccc32)c1 | 1.3 µM | > 76 | > 100 µM
